Measurements from ChEMBL document CHEMBL1201862, “PubChem BioAssay data set” (2004).
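How tested: cells in 96-well plates exposed to compound for 48 hours at five concentrations. GI50 is the concentration that inhibits growth by half.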 Activity calls are given as the source filed them. No stated cut-off is given here; in the data, active = GI50 up to about 1.1 µM and inactive = higher.

How the values were obtained:
Experiment in all cases: NCI anticancer screen, dose series, 48 h
[1] = tested on: EKVX
[2] = tested on: ACHN
[3] = tested on: Malme-3M
[4] = tested on: LXFL 529
[5] = tested on: SK-MEL-28
[6] = tested on: HOP-92
[7] = tested on: SK-MEL-5
[8] = tested on: CAKI-1
[9] = tested on: KM12
[10] = tested on: SNB-19
[11] = tested on: RXF 393
[12] = tested on: SF-268
[13] = tested on: HCT-15
[14] = tested on: M14
[15] = tested on: K562
[16] = tested on: HCC 2998
[17] = tested on: CCRF-CEM
[18] = tested on: MDA-N
[19] = tested on: SR
[20] = tested on: BT-549

Row | SMILES | GI50 [1] | GI50 [2] | GI50 [3] | GI50 [4] | GI50 [5] | GI50 [6] | GI50 [7] | GI50 [8] | GI50 [9] | GI50 [10] | GI50 [11] | GI50 [12] | GI50 [13] | GI50 [14] | GI50 [15] | GI50 [16] | GI50 [17] | GI50 [18] | GI50 [19] | GI50 [20]
1 | COC(=O)C(C(=O)C(=O)Nc1nc2ccc(OC)cc2s1)c1cnc2ccccc2n1 (stereo not drawn) | > 100 µM (inactive) | > 100 µM (inactive) | > 100 µM (inactive) | > 100 µM (inactive) | > 100 µM (inactive) | > 100 µM (inactive) | > 100 µM (inactive) | > 100 µM (inactive) | > 100 µM (inactive) | > 100 µM (inactive) | > 100 µM (inactive) | > 100 µM (inactive) | > 100 µM | > 100 µM (inactive) | > 100 µM (inactive) | > 100 µM (inactive) | – | – | – | –
2 | O=C(Nc1nc2ncn(CCNCCn3cnc4nc(NC(=O)c5ccccc5)[nH]c(=O)c43)c2c(=O)[nH]1)c1ccccc1 | > 100 µM (inactive) | > 100 µM (inactive) | > 100 µM (inactive) | > 100 µM (inactive) | > 100 µM (inactive) | > 100 µM (inactive) | > 100 µM (inactive) | > 100 µM (inactive) | > 100 µM (inactive) | > 100 µM (inactive) | > 100 µM (inactive) | > 100 µM (inactive) | > 100 µM | > 100 µM (inactive) | > 100 µM (inactive) | > 100 µM (inactive) | > 100 µM (inactive) | – | – | –
3 | Cc1cc(C)nc(NS(=O)(=O)c2ccc(Nc3c4ccccc4nc4ccc(C(=O)Nc5ccc(S(=O)(=O)N=C(N)N)cc5)cc34)cc2)n1 | > 100 µM (inactive) | > 100 µM (inactive) | 30.7 µM (inactive) | – | > 100 µM (inactive) | 26 µM (inactive) | 97.3 µM (inactive) | > 100 µM (inactive) | > 100 µM (inactive) | > 100 µM (inactive) | 50.8 µM (inactive) | 69.5 µM (inactive) | 33.3 µM | > 100 µM (inactive) | 25.2 µM (inactive) | > 100 µM (inactive) | 31 µM (inactive) | > 100 µM (inactive) | 44.6 µM (inactive) | 30.5 µM (inactive)
4 | O=[N+]([O-])c1ccc([I+]c2ccccc2)cc1 | 15.7 µM (inactive) | 6.43 µM (inactive) | 4.78 µM (inactive) | – | 3.6 µM (inactive) | 9.79 µM (inactive) | 8.04 µM (inactive) | 3.95 µM (inactive) | 5.04 µM (inactive) | 5.52 µM (inactive) | 3.54 µM (inactive) | 6.61 µM (inactive) | 7.35 µM | 4.29 µM (inactive) | 4.19 µM (inactive) | 7.28 µM (inactive) | 2.49 µM (inactive) | 6.56 µM (inactive) | 2.53 µM (inactive) | 2.8 µM (inactive)
5 | COc1cc2ccc(CC(=O)O)cc2cc1OC | > 100 µM (inactive) | > 100 µM (inactive) | > 100 µM (inactive) | > 100 µM (inactive) | > 100 µM (inactive) | – | > 100 µM (inactive) | > 100 µM (inactive) | > 100 µM (inactive) | > 100 µM (inactive) | > 100 µM (inactive) | > 100 µM (inactive) | > 100 µM | > 100 µM (inactive) | > 100 µM (inactive) | > 100 µM (inactive) | > 100 µM (inactive) | – | > 100 µM (inactive) | –
6 | COC(=O)[C@@]12CC(C(C)C)[C@H]3CC(C(=O)C=C1OC)[C@H]32 (stereo partly drawn) | > 100 µM (inactive) | > 100 µM (inactive) | > 100 µM (inactive) | > 100 µM (inactive) | > 100 µM (inactive) | > 100 µM (inactive) | > 100 µM (inactive) | > 100 µM (inactive) | > 100 µM (inactive) | > 100 µM (inactive) | > 100 µM (inactive) | > 100 µM (inactive) | > 100 µM | > 100 µM (inactive) | 85.5 µM (inactive) | > 100 µM (inactive) | 47.5 µM (inactive) | – | – | –
7 | CN(C)c1snc2c1c(=O)n(C)c(=O)n2C | 40.1 µM (inactive) | > 100 µM (inactive) | > 100 µM (inactive) | > 100 µM (inactive) | > 100 µM (inactive) | – | > 100 µM (inactive) | > 100 µM (inactive) | – | > 100 µM (inactive) | – | > 100 µM (inactive) | > 100 µM | – | > 100 µM (inactive) | > 100 µM (inactive) | > 100 µM (inactive) | – | – | –
8 | NC(=O)c1cc(C2OC(CO)C(O)C2O)nn1-c1ccc([N+](=O)[O-])cc1 (stereo not drawn) | > 100 µM (inactive) | > 100 µM (inactive) | > 100 µM (inactive) | > 100 µM (inactive) | > 100 µM (inactive) | > 100 µM (inactive) | > 100 µM (inactive) | > 100 µM (inactive) | > 100 µM (inactive) | > 100 µM (inactive) | > 100 µM (inactive) | > 100 µM (inactive) | > 100 µM | > 100 µM (inactive) | > 100 µM (inactive) | > 100 µM (inactive) | > 100 µM (inactive) | – | – | –
9 | N=CCCN(CCC=N)c1ccc(/C=C2\CN(NC(=O)c3ccc(Cl)cc3)C(c3ccccc3)=N2)cc1 | > 100 µM (inactive) | > 100 µM (inactive) | > 100 µM (inactive) | > 100 µM (inactive) | > 100 µM (inactive) | > 100 µM (inactive) | > 100 µM (inactive) | > 100 µM (inactive) | > 100 µM (inactive) | > 100 µM (inactive) | – | > 100 µM (inactive) | > 100 µM | > 100 µM (inactive) | > 100 µM (inactive) | > 100 µM (inactive) | > 100 µM (inactive) | – | – | –
10 | C=CC(COC(=O)C(C)(C)OC(C)=O)c1ccc(OC(=O)C(C)C)c(OC)c1 (stereo not drawn) | 12.7 µM (inactive) | 2.88 µM (inactive) | 2.7 µM (inactive) | – | 5.19 µM (inactive) | 2.73 µM (inactive) | 13.5 µM (inactive) | 1.96 µM (inactive) | 4.07 µM (inactive) | 11.1 µM (inactive) | 6.07 µM (inactive) | 5.2 µM (inactive) | 2.03 µM | 6.43 µM (inactive) | 30.5 µM (inactive) | 3.66 µM (inactive) | 2.78 µM (inactive) | 3.52 µM (inactive) | 2.56 µM (inactive) | 8.87 µM (inactive)
11 | O=c1c2ccccc2oc2ccccc12.Oc1cccc2cccnc12 | 3.44 µM (inactive) | 3.12 µM (inactive) | 1.75 µM (inactive) | 1.56 µM (inactive) | – | – | 1.95 µM (inactive) | 3.9 µM (inactive) | 5.3 µM (inactive) | 3.36 µM (inactive) | – | 2.75 µM (inactive) | – | 3.11 µM (inactive) | 4.99 µM (inactive) | 1.88 µM (inactive) | 0.815 µM (active) | – | 2.73 µM (inactive) | –
12 | O=C(O)CN(c1ccccc1)S(=O)(=O)c1ccc(Cl)cc1 | > 100 µM (inactive) | > 100 µM (inactive) | > 100 µM (inactive) | > 100 µM (inactive) | > 100 µM (inactive) | > 100 µM (inactive) | – | > 100 µM (inactive) | – | > 100 µM (inactive) | > 100 µM (inactive) | > 100 µM (inactive) | > 100 µM | > 100 µM (inactive) | > 100 µM (inactive) | – | > 100 µM (inactive) | – | – | –
